Laboratory results from PubChem BioAssay AID1963436 (Molecular Pharmacology Branch, DTP, NCI, 2024).

Tested on: OVCAR-5 complex spheroid (HUVEC/MSC), viability % T/C
Assay: Anticancer human tumor OVCAR-5 cell line growth inhibition [Asc];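 note: spheroids exposed to agents for 7 days before readout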;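 for viability, T/C: 100% = DMSO vehicle-treated wells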
Conditions: for IC50: curve of first compound; for viability, T/C: stronger effect = lower value; active = viability on the fitted dose curve at most 10% of control; inactive = the rest
How it was run: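 Concentration series start at each agent's clinical Cmax, or at 10 microM when none is established, and drop in half-log steps; agents are applied alone or together to complex spheroids built with HUVEC and hMSC.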

CCN1CCN(Cc2ccc(Nc3ncc(F)c(-c4cc(F)c5nc(C)n(C(C)C)c5c4)n3)nc2)CC1 + CNC(C)C(=O)NC1CN(S(=O)(=O)c2cccc(S(=O)(=O)N3CCC4CCC(C(=O)NC(c5ccccc5)c5ccccc5)N4C(=O)C(NC(=O)C(C)NC)C3)c2)CCC2CCC(C(=O)NC(c3ccccc3)c3ccccc3)N2C1=O
> 1000 nM: IC50 (second compound 0.01 µM) | IC50 (second compound 0.0316 µM) | IC50 (second compound 0.1 µM) | IC50 (second compound 1 µM)
inactive: viability, T/C (second compound 0.01 µM, first compound 0.00316 µM) 87.1% | viability, T/C (second compound 0.01 µM, first compound 0.01 µM) 83.2% | viability, T/C (second compound 0.01 µM, first compound 0.0316 µM) 67.7% | viability, T/C (second compound 0.01 µM, first compound 0.1 µM) 59.5% | viability, T/C (second compound 0.01 µM, first compound 0.316 µM) 62.7% | viability, T/C (second compound 0.01 µM, first compound 1 µM) 49.9% | viability, T/C (second compound 0.0316 µM, first compound 0.00316 µM) 76% | viability, T/C (second compound 0.0316 µM, first compound 0.01 µM) 71.9% | viability, T/C (second compound 0.0316 µM, first compound 0.0316 µM) 58.4% | viability, T/C (second compound 0.0316 µM, first compound 0.1 µM) 55.2% | viability, T/C (second compound 0.0316 µM, first compound 0.316 µM) 57.2% | viability, T/C (second compound 0.0316 µM, first compound 1 µM) 49.3% | viability, T/C (second compound 0.1 µM, first compound 0.00316 µM) 76.8% | viability, T/C (second compound 0.1 µM, first compound 0.01 µM) 67.2% | viability, T/C (second compound 0.1 µM, first compound 0.0316 µM) 55.4% | viability, T/C (second compound 0.1 µM, first compound 0.1 µM) 50% | viability, T/C (second compound 0.1 µM, first compound 0.316 µM) 55% | viability, T/C (second compound 0.1 µM, first compound 1 µM) 47% | viability, T/C (second compound 0.316 µM, first compound 0.00316 µM) 69.3% | viability, T/C (second compound 0.316 µM, first compound 0.01 µM) 70.3% | viability, T/C (second compound 0.316 µM, first compound 0.0316 µM) 59% | viability, T/C (second compound 0.316 µM, first compound 0.1 µM) 54.8% | viability, T/C (second compound 0.316 µM, first compound 0.316 µM) 52% | viability, T/C (second compound 0.316 µM, first compound 1 µM) 49.4% | viability, T/C (second compound 1 µM, first compound 0.00316 µM) 76.8% | viability, T/C (second compound 1 µM, first compound 0.01 µM) 65.3% | viability, T/C (second compound 1 µM, first compound 0.0316 µM) 65.9% | viability, T/C (second compound 1 µM, first compound 0.1 µM) 58.9% | viability, T/C (second compound 1 µM, first compound 0.316 µM) 51.9% | viability, T/C (second compound 1 µM, first compound 1 µM) 51.5%
642 nM: IC50 (second compound 0.316 µM)

NC(=O)C(=Cn1cnc(-c2cc(C(F)(F)F)cc(C(F)(F)F)c2)n1)c1cncnc1 + CNC(C)C(=O)NC1CN(S(=O)(=O)c2cccc(S(=O)(=O)N3CCC4CCC(C(=O)NC(c5ccccc5)c5ccccc5)N4C(=O)C(NC(=O)C(C)NC)C3)c2)CCC2CCC(C(=O)NC(c3ccccc3)c3ccccc3)N2C1=O
147 nM: IC50 (second compound 0.0316 µM)
inactive: viability, T/C (second compound 0.01 µM, first compound 0.000949 µM) 95.4% | viability, T/C (second compound 0.01 µM, first compound 0.003 µM) 95.5% | viability, T/C (second compound 0.01 µM, first compound 0.00949 µM) 91.4% | viability, T/C (second compound 0.01 µM, first compound 0.03 µM) 76.5% | viability, T/C (second compound 0.01 µM, first compound 0.0949 µM) 63% | viability, T/C (second compound 0.01 µM, first compound 0.3 µM) 45.5% | viability, T/C (second compound 0.0316 µM, first compound 0.000949 µM) 96% | viability, T/C (second compound 0.0316 µM, first compound 0.003 µM) 89.2% | viability, T/C (second compound 0.0316 µM, first compound 0.00949 µM) 73.3% | viability, T/C (second compound 0.0316 µM, first compound 0.03 µM) 67.7% | viability, T/C (second compound 0.0316 µM, first compound 0.0949 µM) 60% | viability, T/C (second compound 0.0316 µM, first compound 0.3 µM) 39% | viability, T/C (second compound 0.1 µM, first compound 0.000949 µM) 86.6% | viability, T/C (second compound 0.1 µM, first compound 0.003 µM) 89.9% | viability, T/C (second compound 0.1 µM, first compound 0.00949 µM) 77.4% | viability, T/C (second compound 0.1 µM, first compound 0.03 µM) 66.3% | viability, T/C (second compound 0.1 µM, first compound 0.0949 µM) 57.2% | viability, T/C (second compound 0.1 µM, first compound 0.3 µM) 38% | viability, T/C (second compound 0.316 µM, first compound 0.000949 µM) 82.2% | viability, T/C (second compound 0.316 µM, first compound 0.003 µM) 84.1% | viability, T/C (second compound 0.316 µM, first compound 0.00949 µM) 69.4% | viability, T/C (second compound 0.316 µM, first compound 0.03 µM) 66.7% | viability, T/C (second compound 0.316 µM, first compound 0.0949 µM) 60% | viability, T/C (second compound 0.316 µM, first compound 0.3 µM) 37% | viability, T/C (second compound 1 µM, first compound 0.000949 µM) 85.7% | viability, T/C (second compound 1 µM, first compound 0.003 µM) 82.8% | viability, T/C (second compound 1 µM, first compound 0.00949 µM) 79.8% | viability, T/C (second compound 1 µM, first compound 0.03 µM) 70.6% | viability, T/C (second compound 1 µM, first compound 0.0949 µM) 54.9% | viability, T/C (second compound 1 µM, first compound 0.3 µM) 33.4%
222 nM: IC50 (second compound 0.01 µM)
135 nM: IC50 (second compound 0.1 µM)
124 nM: IC50 (second compound 1 µM)
141 nM: IC50 (second compound 0.316 µM)
